We go through one compound from PubChem BioAssay AID1224918.

The assay relates to MCF7 antiproliferative assay. Description: PubChem AID 1224918.

Take `COc1cc(-c2nn(CCN3CCC(N(C)C)CC3)c3ncnc(N)c23)ccc1NC(=O)OC(C)(C)C`: the EC50 (commonly the midpoint of the concentration-response curve) is 0.07 µM.
